Data reported in US20240376099A1, “COMPOUNDS AND COMPOSITIONS AS INHIBITORS OF ENDOSOMAL TOLL-LIKE RECEPTORS” (Novartis AG, priority 2016, published 2024).

biological target: T1, TLR8 (Homo sapiens, UniProt Q9NR97); test: huPBMC TLR8 Antagonist IL-6 TR-FRET Assay; assay type: cell-based; set-up: Fresh blood was collected from normal human donors; endogenous in cells; host or cells: human PBMCs from fresh donor blood; conditions: human PBMCs stimulated with ssRNA40 1 μg/ml (DOTAP), 14-16 hrs; IL-6 TR-FRET read-out
T1 sequence (Q9NR97 27-1041): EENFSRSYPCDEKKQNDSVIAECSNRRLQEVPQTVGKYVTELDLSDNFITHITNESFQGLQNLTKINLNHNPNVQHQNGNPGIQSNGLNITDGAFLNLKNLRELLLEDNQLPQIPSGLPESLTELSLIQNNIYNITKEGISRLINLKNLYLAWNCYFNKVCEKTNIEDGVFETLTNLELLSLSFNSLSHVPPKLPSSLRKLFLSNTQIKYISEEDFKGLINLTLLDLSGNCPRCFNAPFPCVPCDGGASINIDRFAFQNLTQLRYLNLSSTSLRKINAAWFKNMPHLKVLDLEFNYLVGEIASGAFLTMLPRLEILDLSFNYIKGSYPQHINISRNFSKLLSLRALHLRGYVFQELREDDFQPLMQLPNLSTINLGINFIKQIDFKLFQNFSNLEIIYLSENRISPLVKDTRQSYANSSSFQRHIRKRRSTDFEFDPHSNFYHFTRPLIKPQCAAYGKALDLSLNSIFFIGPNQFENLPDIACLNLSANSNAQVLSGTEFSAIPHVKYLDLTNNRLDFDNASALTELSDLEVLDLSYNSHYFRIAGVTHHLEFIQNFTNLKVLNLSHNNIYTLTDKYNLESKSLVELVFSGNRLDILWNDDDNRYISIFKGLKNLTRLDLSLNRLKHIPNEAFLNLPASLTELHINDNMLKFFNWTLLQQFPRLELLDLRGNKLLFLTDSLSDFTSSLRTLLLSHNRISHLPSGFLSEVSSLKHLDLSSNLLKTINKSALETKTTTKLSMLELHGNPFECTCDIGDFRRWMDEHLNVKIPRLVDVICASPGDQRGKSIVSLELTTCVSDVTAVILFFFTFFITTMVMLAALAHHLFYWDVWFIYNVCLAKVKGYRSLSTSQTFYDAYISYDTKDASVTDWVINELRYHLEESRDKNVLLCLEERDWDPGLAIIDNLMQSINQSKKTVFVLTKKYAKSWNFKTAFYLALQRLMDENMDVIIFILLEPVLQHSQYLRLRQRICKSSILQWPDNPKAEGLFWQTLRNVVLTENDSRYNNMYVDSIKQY
In short: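 Human PBMCs from fresh donor blood (150,000 cells/well) stimulated 14–16 h at 37 °C with DOTAP-complexed ssRNA40 (final 1 μg/ml for TLR8, 10 μg/mL for TLR7) or ODN2216 (final 0.3 μM, TLR9), 0.25% DMSO, ten-point 1/3 compound dilutions. Supernatant IL-6 read by HTRF (TLR8); IFNα by IFNα2b AlphaLISA (TLR7/TLR9).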

Row | Structure (SMILES) | IC50 [nM]
1 | Cc1cc(N2CCc3c(c(C(F)(F)F)nn3CC34CCC(N)(CC3)CC4)C2)c2cnn(C)c2n1 [compound 45, 4-((5-(1,6-dimethyl-1H-pyrazolo[3,4-b]pyridin-4-yl)-3-(trifluoromethyl)-4,5,6,7-tetrahydro-1H-pyrazolo[4,3-c]pyridin-1-yl)methyl)bicyclo[2.2.2]octan-1-amine] | 630
2 | Cc1cc(N2CCc3c(c(C)nn3CC34CCC(NCC(=O)N5CCCCC5)(CC3)CC4)C2)c2cnn(C)c2n1 [compound 99, 2-((4-((5-(1,6-dimethyl-1H-pyrazolo[3,4-b]pyridin-4-yl)-3-methyl-4,5,6,7-tetrahydro-1H-pyrazolo[4,3-c]pyridin-1-yl)methyl)bicyclo[2.2.2]octan-1-yl)amino)-1-(piperidin-1-yl)ethanone] | 130
3 | Cc1cc(N2CCc3c(c(C)nn3CC34CCC(NC(=O)CN5CCCC5)(CC3)CC4)C2)c2cnn(C)c2n1 [compound 100, N-(4-((5-(1,6-dimethyl-1H-pyrazolo[3,4-b]pyridin-4-yl)-3-methyl-4,5,6,7-tetrahydro-1H-pyrazolo[4,3-c]pyridin-1-yl)methyl)bicyclo[2.2.2]octan-1-yl)-2-(pyrrolidin-1-yl)acetamide] | 15
4 | COCCNC12CCC(Cn3nc(C)c4c3CCN(c3cc(C)nc5c3cnn5C)C4)(CC1)OC2 [compound 102, 1-((5-(1,6-dimethyl-1H-pyrazolo[3,4-b]pyridin-4-yl)-3-methyl-4,5,6,7-tetrahydro-1H-pyrazolo[4,3-c]pyridin-1-yl)methyl)-N-(2-methoxyethyl)-2-oxabicyclo[2.2.2]octan-4-amine] | 366
5 | Cc1cc(N2CCc3c(c(C)nn3CC34CCC(NC(=O)CCN(C)C)(CC3)CC4)C2)c2cnn(C)c2n1 [compound 105, N-(4-((5-(1,6-dimethyl-1H-pyrazolo[3,4-b]pyridin-4-yl)-3-methyl-4,5,6,7-tetrahydro-1H-pyrazolo[4,3-c]pyridin-1-yl)methyl)bicyclo[2.2.2]octan-1-yl)-3-(dimethylamino)propanamide] | 27
6 | Cc1cc(N2CCc3c(c(C)nn3CC34CCC(NCC(=O)N5CCCC5)(CC3)CC4)C2)c2cnn(C)c2n1 [compound 106, 2-((4-((5-(1,6-dimethyl-1H-pyrazolo[3,4-b]pyridin-4-yl)-3-methyl-4,5,6,7-tetrahydro-1H-pyrazolo[4,3-c]pyridin-1-yl)methyl)bicyclo[2.2.2]octan-1-yl)amino)-1-(pyrrolidin-1-yl)ethanone] | 168
7 | Cc1cc(N2CCc3c(c(C)nn3CC34CCC(NC(=O)CCN)(CC3)CC4)C2)c2cnn(C)c2n1 [compound 115, 3-amino-N-(4-((5-(1,6-dimethyl-1H-pyrazolo[3,4-b]pyridin-4-yl)-3-methyl-4,5,6,7-tetrahydro-1H-pyrazolo[4,3-c]pyridin-1-yl)methyl)bicyclo[2.2.2]octan-1-yl)propanamide] | 245
8 | CNCC(=O)NC12CCC(Cn3nc(C)c4c3CCN(c3cc(C)nc5c3cnn5C)C4)(CC1)CC2 [compound 121, N-(4-((5-(1,6-dimethyl-1H-pyrazolo[3,4-b]pyridin-4-yl)-3-methyl-4,5,6,7-tetrahydro-1H-pyrazolo[4,3-c]pyridin-1-yl)methyl)bicyclo[2.2.2]octan-1-yl)-2-(methylamino)acetamide] | 39

Results, then the compound that gave them:

Row | IC50 [nM] | Structure (SMILES)
9 | 6 | Cc1cc(N2CCc3c(c(C)nn3CC34CCC(N5CCO[C@H](C)C5)(CC3)CC4)C2)c2cnn(C)c2n1 [compound 107, (R)-4-(4-((5-(1,6-dimethyl-1H-pyrazolo[3,4-b]pyridin-4-yl)-3-methyl-4,5,6,7-tetrahydro-1H-pyrazolo[4,3-c]pyridin-1-yl)methyl)bicyclo[2.2.2]octan-1-yl)-2-methylmorpholine]
10 | 16 | Cc1cc(N2CCc3c(c(C)nn3CC34CCC(N5CCO[C@@H](C)C5)(CC3)CC4)C2)c2cnn(C)c2n1 [compound 109, (S)-4-(4-((5-(1,6-dimethyl-1H-pyrazolo[3,4-b]pyridin-4-yl)-3-methyl-4,5,6,7-tetrahydro-1H-pyrazolo[4,3-c]pyridin-1-yl)methyl)bicyclo[2.2.2]octan-1-yl)-2-methylmorpholine]
11 | 16 | Cc1cc(N2CCc3c(c(C)nn3CC34CCC(N5C[C@@H](C)O[C@@H](C)C5)(CC3)CC4)C2)c2cnn(C)c2n1 [compound 110, (2S,6R)-4-(4-((5-(1,6-dimethyl-1H-pyrazolo[3,4-b]pyridin-4-yl)-3-methyl-4,5,6,7-tetrahydro-1H-pyrazolo[4,3-c]pyridin-1-yl)methyl)bicyclo[2.2.2]octan-1-yl)-2,6-dimethylmorpholine]
12 | 39 | Cc1cc(N2CCc3c(c(C)nn3CC34CCC(N5C[C@H](C)O[C@@H](C)C5)(CC3)CC4)C2)c2cnn(C)c2n1 [compound 111, (2S,6S)-4-(4-((5-(1,6-dimethyl-1H-pyrazolo[3,4-b]pyridin-4-yl)-3-methyl-4,5,6,7-tetrahydro-1H-pyrazolo[4,3-c]pyridin-1-yl)methyl)bicyclo[2.2.2]octan-1-yl)-2,6-dimethylmorpholine]
13 | 56 | Cc1cc(N2CCc3c(c(C)nn3CC34CCC(NCC5CCC5)(CC3)CO4)C2)c2cnn(C)c2n1 [compound 112, N-(cyclobutylmethyl)-1-((5-(1,6-dimethyl-1H-pyrazolo[3,4-b]pyridin-4-yl)-3-methyl-4,5,6,7-tetrahydro-1H-pyrazolo[4,3-c]pyridin-1-yl)methyl)-2-oxabicyclo[2.2.2]octan-4-amine]
14 | 16 | Cc1cc(N2CCc3c(c(C)nn3CC34CCC(N5C[C@@H](C)O[C@H](C)C5)(CC3)CC4)C2)c2cnn(C)c2n1 [compound 113, (2R,6R)-4-(4-((5-(1,6-dimethyl-1H-pyrazolo[3,4-b]pyridin-4-yl)-3-methyl-4,5,6,7-tetrahydro-1H-pyrazolo[4,3-c]pyridin-1-yl)methyl)bicyclo[2.2.2]octan-1-yl)-2,6-dimethylmorpholine]
15 | 15 | CCNCC(=O)NC12CCC(Cn3nc(C)c4c3CCN(c3cc(C)nc5c3cnn5C)C4)(CC1)CC2 [compound 114, N-(4-((5-(1,6-dimethyl-1H-pyrazolo[3,4-b]pyridin-4-yl)-3-methyl-4,5,6,7-tetrahydro-1H-pyrazolo[4,3-c]pyridin-1-yl)methyl)bicyclo[2.2.2]octan-1-yl)-2-(ethylamino)acetamide]
16 | 68 | Cc1cc(N2CCc3c(c(C)nn3CC34CCC(N5CC6(COC6)C5)(CC3)CC4)C2)c2cnn(C)c2n1 [compound 116, 6-(4-((5-(1,6-dimethyl-1H-pyrazolo[3,4-b]pyridin-4-yl)-3-methyl-4,5,6,7-tetrahydro-1H-pyrazolo[4,3-c]pyridin-1-yl)methyl)bicyclo[2.2.2]octan-1-yl)-2-oxa-6-azaspiro[3.3]heptane]
17 | 236 | CN[C@H](C)C(=O)NC12CCC(Cn3nc(C)c4c3CCN(c3cc(C)nc5c3cnn5C)C4)(CC1)CC2 [compound 117, (R)-N-(4-((5-(1,6-dimethyl-1H-pyrazolo[3,4-b]pyridin-4-yl)-3-methyl-4,5,6,7-tetrahydro-1H-pyrazolo[4,3-c]pyridin-1-yl)methyl)bicyclo[2.2.2]octan-1-yl)-2-(methylamino)propanamide]
18 | 197 | CN[C@@H](C)C(=O)NC12CCC(Cn3nc(C)c4c3CCN(c3cc(C)nc5c3cnn5C)C4)(CC1)CC2 [compound 118]
19 | 121 | Cc1cc(N2CCc3c(c(C)nn3CC34CCC(NCC(C)(C)O)(CC3)CC4)C2)c2cnn(C)c2n1 [compound 123, 1-((4-((5-(1,6-dimethyl-1H-pyrazolo[3,4-b]pyridin-4-yl)-3-methyl-4,5,6,7-tetrahydro-1H-pyrazolo[4,3-c]pyridin-1-yl)methyl)bicyclo[2.2.2]octan-1-yl)amino)-2-methylpropan-2-ol]
20 | > 10000 | CCNCC(=O)NC12CCC(Cn3nc(C)c4c3CCN(c3cc(C)nc5cn[nH]c35)C4)(CC1)CC2 [compound 124, 2-(ethylamino)-N-(4-((3-methyl-5-(5-methyl-1H-pyrazolo[4,3-b]pyridin-7-yl)-4,5,6,7-tetrahydro-1H-pyrazolo[4,3-c]pyridin-1-yl)methyl)bicyclo[2.2.2]octan-1-yl)acetamide]
